Several values for one entry are separate records, joined by “and”; a condition that tells them apart may be missing. Identical values can stand only once.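 Compound exposure: 48 hours, 5 concentrations, 96-well plates. GI50: concentration for 50% inhibition of growth. Definition used: TGI = concentration required for complete inhibition of growth.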

Among the test systems are 786-0 renal; OVCAR-5 ovarian; RXF 393 renal; HOP-92 NSCLC; IGROV1 ovarian; HL-60(TB) leukemia; ACHN renal; OVCAR-8 ovarian; SNB-19 CNS; CCRF-CEM leukemia.
What all share (experiment): growth of human tumour cells (NCI), 48 h

Turning to `N=c1oc2ccc3ccccc3c2cc1C(N)=O`, the TGI in the assay on 786-0 renal is above 100 µM; in the assay on OVCAR-5 ovarian, above 100 µM; in the assay with RXF 393 renal, above 100 µM; in the assay on HOP-92 NSCLC, above 100 µM; in the assay on IGROV1 ovarian, 70.8 µM; in the assay with HL-60(TB) leukemia, above 100 µM. Moreover, the TGI in the assay on ACHN renal, in the assay with OVCAR-8 ovarian, with SNB-19 CNS and with CCRF-CEM leukemia was above 100 µM each time.
In the case of `COC1OC(Cc2nnc(C)o2)C(OCc2ccccc2)C(OCc2ccccc2)C1OCc1ccccc1` (stereo not drawn), the TGI in the assay on 786-0 renal is above 100 µM; in the assay on OVCAR-5 ovarian, above 100 µM; in the assay on RXF 393 renal it was 48.2 µM; in the assay on HOP-92 NSCLC, above 100 µM; in the assay with IGROV1 ovarian, 52.4 µM; in the assay with HL-60(TB) leukemia it was 76.3 µM. For the same molecule, the TGI in the assay on ACHN renal is 76.8 µM; in the assay on SNB-19 CNS, above 100 µM; in the assay with CCRF-CEM leukemia, 52.7 µM.
`CCOC(=O)C(NC(=O)N(C1=NCC(C)S1)C1CCCCC1)(OC)C(F)(F)F` (stereo not drawn): the TGI in the assay on 786-0 renal is 28.9 µM; with OVCAR-5 ovarian, above 100 µM; in the assay on RXF 393 renal, 45.5 µM; with HOP-92 NSCLC, above 100 µM; in the assay on HL-60(TB) leukemia, 59.5 µM; in the assay with ACHN renal it was 89.9 µM. The TGI in the assay with OVCAR-8 ovarian, with SNB-19 CNS and in the assay with CCRF-CEM leukemia was above 100 µM in each case.
Take `c1ccc(CCN2CCc3[nH]c4ccccc4c3C2)cc1`: the TGI was 31.6 µM in the assay with 786-0 renal; 67 µM in the assay on OVCAR-5 ovarian; 34.3 µM in the assay with RXF 393 renal; 34.6 µM in the assay on HOP-92 NSCLC; 67.8 µM in the assay on IGROV1 ovarian; 41.7 µM in the assay on HL-60(TB) leukemia. Further, the TGI in the assay on ACHN renal is 96.7 µM; with OVCAR-8 ovarian, 44.7 µM; in the assay with SNB-19 CNS, 41.8 µM; in the assay with CCRF-CEM leukemia it was above 100 µM.
Take `Cc1cccc2c1[nH]c1[nH]c(=O)[nH]c(=O)c12`: the TGI with 786-0 renal, in the assay on OVCAR-5 ovarian, with RXF 393 renal, in the assay with HOP-92 NSCLC, with IGROV1 ovarian and in the assay with HL-60(TB) leukemia was above 100 µM each time. Also, the TGI in the assay on ACHN renal, with OVCAR-8 ovarian, in the assay on SNB-19 CNS and in the assay with CCRF-CEM leukemia was above 100 µM throughout.
In the case of `O=CC(O)C(O)C(O)C(O)C(=O)NCCCCCCCCCCCCNC(=O)C(O)C(O)C(O)C(O)C=O` (stereo not drawn), the TGI in the assay on 786-0 renal, in the assay on OVCAR-5 ovarian, in the assay with RXF 393 renal, with HOP-92 NSCLC, with IGROV1 ovarian and in the assay on HL-60(TB) leukemia was above 100 µM each time. Further, the TGI with ACHN renal, with OVCAR-8 ovarian, with SNB-19 CNS and in the assay on CCRF-CEM leukemia was above 100 µM in each case.
As for `COc1cc2nc(-c3ccc4ccccc4c3)[nH]c(=O)c2cc1OC`, the TGI in the assay on 786-0 renal, with OVCAR-5 ovarian, with RXF 393 renal, with HOP-92 NSCLC, in the assay with IGROV1 ovarian and in the assay with HL-60(TB) leukemia was above 100 µM in each case. Besides, the TGI in the assay with ACHN renal is above 100 µM; in the assay on OVCAR-8 ovarian it was above 100 µM; in the assay with SNB-19 CNS, 97.2 µM; with CCRF-CEM leukemia it was above 100 µM.
As for `[Cl][Pt+2][Cl].[NH-]C1CCCCC1[NH-]` (stereo not drawn), the TGI is 78.4 µM and > 100 µM and 14.3 µM in the assay with OVCAR-5 ovarian; above 100 µM in the assay with RXF 393 renal; above 100 µM in the assay on HOP-92 NSCLC; > 100 µM and 45.8 µM with IGROV1 ovarian; 4.49 µM and 8.45 µM and 1.89 µM in the assay with HL-60(TB) leukemia; above 100 µM in the assay with OVCAR-8 ovarian. In addition, the TGI in the assay with SNB-19 CNS and with CCRF-CEM leukemia was above 100 µM throughout. For the same molecule, the GI50 with RXF 393 renal was > 57.9 µM and 66.8 µM and > 28.6 µM; in the assay with HOP-92 NSCLC, 35.3 µM and > 100 µM and 29.7 µM; in the assay with IGROV1 ovarian, 18.9 µM and 9.23 µM and 2.45 µM; with HL-60(TB) leukemia, 0.884 µM and 1.46 µM and 0.199 µM; in the assay on CCRF-CEM leukemia, 3.19 µM and 2.91 µM and 0.872 µM.
For the molecule `Cn1nc2n(c1=O)CCCN2`, the TGI in the assay with 786-0 renal, with OVCAR-5 ovarian, in the assay on RXF 393 renal, in the assay with HOP-92 NSCLC, in the assay with IGROV1 ovarian and in the assay with HL-60(TB) leukemia was above 100 µM throughout. The TGI in the assay with ACHN renal, in the assay on OVCAR-8 ovarian, with SNB-19 CNS and with CCRF-CEM leukemia was above 100 µM in each case.
On to `CCc1c(Cc2cccc3ccccc23)n2c(nc1=O)SCC2OCCO` (stereo not drawn), for which the TGI in the assay with 786-0 renal was above 100 µM; with OVCAR-5 ovarian, above 100 µM; with RXF 393 renal, above 100 µM; in the assay on HOP-92 NSCLC it was 34.7 µM; with IGROV1 ovarian, above 100 µM; in the assay on HL-60(TB) leukemia, above 100 µM. In addition, the TGI is above 100 µM with ACHN renal, above 100 µM in the assay on OVCAR-8 ovarian, above 100 µM in the assay with SNB-19 CNS and 74 µM in the assay with CCRF-CEM leukemia.
As to `COc1ccc(/C=c2\[nH]c3nc(=O)c(N4CCOCC4)c(N)n3c2=O)cc1`, the TGI in the assay on 786-0 renal, in the assay with OVCAR-5 ovarian, in the assay on RXF 393 renal, with HOP-92 NSCLC, with IGROV1 ovarian and in the assay with HL-60(TB) leukemia was above 100 µM in each case. For the same molecule, the TGI in the assay with ACHN renal, with OVCAR-8 ovarian, in the assay with SNB-19 CNS and with CCRF-CEM leukemia was above 100 µM each time.
As for `Cc1cc(/C=C\c2ccc3ccccc3[n+]2C)c(O)c2ncccc12`, the GI50 in the assay with OVCAR-5 ovarian was 0.829 µM; with RXF 393 renal, 1.55 µM; in the assay on HOP-92 NSCLC, 0.0995 µM; in the assay with IGROV1 ovarian it was 0.413 µM; in the assay with HL-60(TB) leukemia, 0.125 µM; in the assay on ACHN renal it was 0.584 µM. Moreover, the GI50 with OVCAR-8 ovarian was 0.399 µM; in the assay on SNB-19 CNS, 0.494 µM; in the assay with CCRF-CEM leukemia it was 0.331 µM. Also, the TGI with OVCAR-5 ovarian was 6.19 µM; in the assay on RXF 393 renal, 6.03 µM; with HOP-92 NSCLC, 4.48 µM; in the assay with IGROV1 ovarian, 2.38 µM; with ACHN renal it was 2.15 µM; in the assay with OVCAR-8 ovarian it was above 100 µM. Also, the TGI was 27.4 µM in the assay with SNB-19 CNS and above 100 µM in the assay on CCRF-CEM leukemia.

Values taken from PubChem BioAssay (NCI).
